Measurements reported in patent US20210401918A1, “COMPOSITION COMPRISING COMBINATION OF RED CLOVER EXTRACT AND HOPS EXTRACT FOR IMPROVEMENT OF MENOPAUSAL DISORDER” (NATURETECH CO. LTD., priority 2018, published 2021).

System: MCF-7 cells
Assay: MCF-7 cells proliferation assay (MTS)
Assay type: cell-based, human
Procedure: MCF-7 cells (human breast cancer cells) were obtained from the Korea Cell Line Bank and used. RPMI (Gibco, USA) medium containing 10% FBS (Gibco, USA) and 1% penicillin-streptomycin (Gibco, USA) was used as cell culture medium, and cells were cultured in 5% CO2, 37° C. incubator. The medium was replaced every two days, and cells were sub-cultured every 4-5 days. HUVECs (human umbilical vein endothelial cells) were obtained from LONZA and used. M200 (Gibco, USA) containing LSGS kit (Gibco, USA) was used as cell culture medium, and only cells at passage 3-5 were used for the experiment.
Estrogen-free medium, which was prepared by diluting phenol red-free RPMI (Gibco, USA) with 5% dextran-coated charcoal-stripped FBS (TCB, USA) and 1% penicillin-streptomycin, was used for the experiment. After reacting cells in the estrogen-free medium for 3 days, they were seeded in a 96-well plate at a concentration of 1.5×10^4 cells/well and incubated in 5% CO2, 37° C. incubator for 24 hours, and then were treated with the sample so that the final DMSO concentration was 0.1%. E2 was used as the positive control, and ICI 182,780 (Sigma Chem. Co., USA) was used as the negative control. After 72 hours of sample treatment, MTS analysis was performed using CellTiter 96®Aqueous One Solution (Promega, Germany) reagent. Each well was treated with 20 μl of MTS reagent, reacted in 5% CO2, 37° C. incubator for 3 hours, and the absorbance was measured at 490 nm using a microplate reader.
In order to ascertain whether each sample acts on the estrogen receptor to show a cell proliferation effect, the sample was treated together with the estrogen receptor inhibit ICI 182,780, and the results are shown in Table 9.

Row | SMILES | Proliferation (%) (Table 8, 1 nM, 72 hours, Control = 100) | Proliferation (%) with ICI 182,780 (Table 9, 1 nM, together with ICI 182,780) | Proliferation (%) without ICI 182,780 (Table 9, 1 nM, without ICI 182,780) | Proliferation (%) with ICI 182,780 (Table 9, Control (sample 0 μg/ml) with ICI 182,780 alone)
1 | C[C@]12CC[C@@H]3c4ccc(O)cc4CC[C@H]3[C@@H]1CC[C@@H]2O [Estradiol, 17β-estradiol] | 135.78 ± 2.83 % | 92.27 ± 2.04% | 143.39 ± 10.46% | 
2 | C[C@]12CC[C@@H]3c4ccc(O)cc4C[C@@H](CCCCCCCCC[S+]([O-])CCCC(F)(F)C(F)(F)F)[C@H]3[C@@H]1CC[C@@H]2O (stereo partly shown) [ICI 182,780] |  |  |  | 86.55 ± 1.95%
